The record followed here is patent US11129867B2, “Method of treating cancer cells” (priority 2017, dated 2021).

The test relates to Poly (ADP-ribose) polymerase (PARP). Briefly: Western blotting of PARP cleavage. The format is cell-based, human. The procedure: Protein expression of Poly (ADP-ribose) polymerase (PARP) were examined in Ca922 cells treated with 25 μM TMR-GBP for 6 hours.
Protein lysate of Ca922 cells treated with TMR-GBP 25 μM were blotted with antibodies against Caspase-3, Caspase-7, Caspase-9 and Poly (ADP-ribose) polymerase (PARP). Representative blots are shown.
Western Blotting Analysis
Cells were harvested by trypsion or scratch and lysed in RIPA buffer (50 mM Tris-HCl, pH 7.4, 150 mM NaCl, 0.1% SDS, 0.5% Sodium deoxycholate, 1% NP-40) supplemented with 1× protease inhibitor cocktail. Sample was incubated on ice for 30 minutes and scraped every 10 minutes. Centrifuge at 13,000 rpm at 4° C. for 15 minutes, then collect supernatant for analysis. Protein concentration was determined by Bradford assay. First, 5× Bradford assay dye reagent was diluted into […], and mixture with RIPA (as standard) or samples. Concentration was obtained by spectrophotometer measurement. Equal volume of 2× laemmli buffer containing β-ME was added into protein lysate for goal concentration. Protein samples were boiled at 100° C. for 15 minutes and resolved by 10% SDS-PAGE gel or 4%-15% gradient gel. […] Washing the membrane three times with 1×PBST for every 5 minutes, protein band was detected by modified ECL (ddH2O, […] Tris pH8.0, 200 μM p-coumaric acid, 1.25 mM luminal, 0.001% H2O2) with ImageQuant LAS 4000 digital imaging system.

Where a SMILES comes first, the peptide text is derived from it. The star is where a group is joined. X1 = CN(C)c1ccc2c(-c3ccc(C(=O)*)cc3C(=O)[O-])c3ccc(=[N+](C)C)cc-3oc2c1

Take `CN(C)c1ccc2c(-c3ccc(C(=O)N[C@@H](CC(N)=O)C(=O)N[C@@H](Cc4ccc(O)cc4)C(=O)N[C@@H](CCCNC(=N)N)C(=O)N[C@@H](Cc4c[nH]c5ccccc45)C(=O)N[C@@H](CCCNC(=N)N)C(=O)N[C@@H](CS)C(=O)N[C@@H](CCCCN)C(=O)N[C@@H](CC(N)=O)C(=O)N[C@@H](CCC(N)=O)C(=O)N[C@@H](CC(N)=O)C(=O)O)cc3C(=O)[O-])c3ccc(=[N+](C)C)cc-3oc2c1` [TMR-GBP] (X1-NYRWRCKNQN-OH; N-terminus and C-terminus assumed): where the note is “Ca922, 25 μM, 6 hours, FIG. 11A”, the PARP cleavage result is “induced PARP cleavage”. Further, for the setting “Ca922, calpain inhibitor pretreated 30 minutes before TMR-GBP, FIG. 11D”, the “PARP cleavage after calpain inhibitor” value is given as “still induced PARP cleavage”.
